Consider 4 compounds from article PMC6467762 (ACS infectious diseases, 2018).

One data set concerns PfDHODH. As to conditions: cited from earlier work.
For data set [1], the system named is P. falciparum Dd2 R10ClB (DHODH G181C). Kind of data set: P. falciparum growth EC50 determination. The data set is classed as cell-based. To be noted: Plasmodium falciparum, DD2|DSM265, read-out: DSM265 EC50.
For data set [2] the following is noted: neutral pH; cited from earlier work.
For data set [3], the system named is P. falciparum Dd2 BSmut control. Kind of data set: In vitro 72 h drug susceptibility assay, CRISPR/Cas9 study. The data set is classed as cell-based. To be noted: Plasmodium falciparum, DD2|DSM265, read-out: DSM265 EC50.
For a further data set, the system named is P. vivax. To be noted: compared with P. falciparum; cited from earlier work.
The next data set has as its system P. falciparum sporozoite. To be noted: cited from earlier work.
Data set [4] concerns P. falciparum Dd2 R2B (DHODH R265G). Kind of data set: P. falciparum growth EC50 determination. The data set is classed as cell-based. To be noted: Plasmodium falciparum, DD2|DSM265, read-out: DSM265 EC50.
A further data set relates to P. falciparum malaria. As to conditions: cited from earlier work.
Data set [5] has as its system P. falciparum Dd2^Dhodh C276Y (CRISPR/Cas9-edited clones). Description: In vitro 72 h drug susceptibility assay, CRISPR/Cas9 study. The data set is classed as cell-based. To be noted: Plasmodium falciparum, DD2|DSM265, read-out: DSM265 EC50.
Data set [6] has as its system P. falciparum Dd2 RIAClB (DHODH C276F). Kind of data set: P. falciparum growth EC50 determination. To be noted: Plasmodium falciparum, DD2|DSM265, read-out: DSM265 EC50. The data set is classed as cell-based.
For another data set, the system named is P. falciparum Dd2 WT. Kind of data set: microbe, parasite or virus in culture. The data set is classed as cell-based. To be noted: Plasmodium falciparum, DD2|DSM265, read-out: DSM265 EC50.
Data set [7] has as its system P. falciparum Dd2 R1BClA (DHODH L531F). Kind of data set: P. falciparum growth EC50 determination. As to conditions: Plasmodium falciparum, DD2|DSM265, read-out: DSM265 EC50. The data set is classed as cell-based.
The conditions of data set [8]: single ascending dose (25–1200 mg), humans; cited from earlier work.
The test system of the next data set is P. falciparum Dd2 parent. Kind of data set: In vitro 72 h drug susceptibility assay, CRISPR/Cas9 study. The data set is classed as cell-based. As to conditions: Plasmodium falciparum, DD2|DSM265, read-out: DSM265 EC50.
The test system of data set [9] is P. falciparum Dd2 R3B (DHODH E182D). Kind of data set: P. falciparum growth EC50 determination. The data set is classed as cell-based. As to conditions: Plasmodium falciparum, DD2|DSM265, read-out: DSM265 EC50.
The subject of data set [10] is P. falciparum blood stage. As to conditions: humans; cited from earlier work.
A further data set has as its system P. falciparum. To be noted: number of parasites; cited from earlier work.
The subject of data set [11] is DSM265-resistant P. falciparum Dd2 parasites. Description: Drug sensitivity of DSM265-resistant Dd2 parasites. The data set is classed as cell-based, Plasmodium falciparum. To be noted: DSM265-selected Dd2 mutant lines; values in Table S1 (not available).
For data set [12], the system named is P. falciparum line from second round of DSM1 selections (increased dhodh copy number). As to conditions: cited from earlier work.

As usually defined, the EC50 is the concentration giving half of the maximal effect.

“Also recorded” adds a separate entry of the source. Where two headings read alike, the source gives them in different places.

In the case of `Cc1cc(Nc2ccc3ccccc3c2)n2ncnc2n1` [DSM1, 5-methyl-N-(naphthalen-2-yl)-[1,2,4]triazolo[1,5-a]pyrimidin-7-amine], the Mode of inhibition entry in the data set with PfDHODH is given as “competitive inhibitor of CoQ”.
Take `Cc1cc(Nc2ccc(S(F)(F)(F)(F)F)cc2)n2nc(C(C)(F)F)nc2n1` [DSM265, 2-(1,1-difluoroethyl)-5-methyl-[N-[4-(pentafluorosulfanyl)phenyl] 1,2,4]triazolo[1,5-a]pyrimidin-7-amine]: the concentration for a half-maximal effect (EC50) in data set [1] worked out at 150 ± 51 nM; in data set [3] it was 5.1 ± 0.31 nM; in data set [4], 150 ± 73 nM; in [5] it was 120 ± 26 nM; in [6], 170 ± 55 nM; with P. falciparum Dd2 WT it was 4.6 ± 1.1 nM. In addition, the figures for the concentration for a half-maximal effect (EC50) (in data set [7]; in the data set on P. falciparum Dd2 parent; in [9]) were 110 ± 17 nM, 4.8 ± 0.86 nM and 71 ± 13 nM, respectively. Also, in [2], the Solubility limit is reported as ~ 30 μM. Also, the “Efficacy against P. vivax” value in the data set on P. vivax is “lower”. The Protection from infection result in the data set with P. falciparum sporozoite (dosed 3 or 7 days before challenge) is reported as “partial protection”; in the data set on P. falciparum sporozoite (single dose of 400 mg given 1 day prior to challenge) it was “full protection”. Besides, the Cure rate in the data set with P. falciparum malaria (single dose of 250 mg) is recorded as 60%. The “Patients parasite free, extended 28-day endpoint” value in the data set with P. falciparum malaria (single dose of 400 mg) is 8/9. Moreover, the Safety entry in data set [8] was “good safety”. Also, the “Efficacy in blood stage human challenge study” value in data set [10] is on record as “demonstrating efficacy”. In addition, in the data set with P. falciparum, the “Minimum inoculum of resistance for the emergence of DSM265-resistant parasites” value is reported as ≥ 10^5.
As for `C[C@@H]1CC[C@H]2[C@@H](C)C(=O)O[C@@H]3O[C@@]4(C)CC[C@@H]1[C@]32OO4` [artemisinin], in data set [11], the “Sensitivity of DSM265-resistant parasites (EC50 vs parent Dd2)” value was “fully sensitive; also recorded: retained full sensitivity”.
`O=C1C(O)=C([C@H]2CC[C@H](c3ccc(Cl)cc3)CC2)C(=O)c2ccccc21` [atovaquone]: the “Sensitivity of DSM265-resistant parasites (EC50 vs parent Dd2)” value in data set [11] was “retained full sensitivity; also recorded: fully sensitive”. In data set [12], the “Sensitivity of DSM1-selected, dhodh-amplified cell line” value is given as “partial tolerance”.
